Results taken from patent US20120184006A1, “Reductase Enzymes” (UTAH STATE UNIVERSITY, priority 2011, published 2012).

Assays:
[1] = target: T1, fatty acyl-CoA reductase (FACoAR) from M. aquaeolei VT8 (Marinobacter nauticus (Marinobacter aquaeolei), UniProt A1U3L3); test: Continuous spectrophotometric NADPH assay (decrease of NADPH at 340 nm); assay type: biochemical; settings: for Rate of Reaction (nmol NADP^+ min^−1 mg proten^−1): 60 μm of the respective aldehyde as substrate; for % Specific Activity of Decanal: percent of the specific activity of decanal, 60 μm aldehyde
T1 sequence (A1U3L3 1-661): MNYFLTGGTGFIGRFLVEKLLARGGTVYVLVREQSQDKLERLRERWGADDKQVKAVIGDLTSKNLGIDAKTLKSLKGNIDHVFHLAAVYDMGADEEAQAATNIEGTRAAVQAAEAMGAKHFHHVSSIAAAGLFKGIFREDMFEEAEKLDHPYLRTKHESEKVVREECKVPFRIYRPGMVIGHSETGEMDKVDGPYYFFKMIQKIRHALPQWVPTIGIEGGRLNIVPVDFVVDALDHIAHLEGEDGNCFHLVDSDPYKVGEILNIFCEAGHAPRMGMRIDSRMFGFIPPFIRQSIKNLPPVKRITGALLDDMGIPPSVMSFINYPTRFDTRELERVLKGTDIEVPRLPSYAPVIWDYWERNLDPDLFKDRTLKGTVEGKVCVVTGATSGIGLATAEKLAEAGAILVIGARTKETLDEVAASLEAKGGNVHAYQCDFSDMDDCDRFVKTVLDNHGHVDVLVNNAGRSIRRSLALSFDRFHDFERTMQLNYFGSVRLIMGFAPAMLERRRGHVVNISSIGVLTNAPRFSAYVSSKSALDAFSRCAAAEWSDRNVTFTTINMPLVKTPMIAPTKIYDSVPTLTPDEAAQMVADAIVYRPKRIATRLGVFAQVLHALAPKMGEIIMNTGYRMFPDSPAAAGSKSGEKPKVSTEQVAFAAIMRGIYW
Procedure: (§1) All assays were conducted in a total volume of 1 mL. A buffer containing 50 mM NaCl, 20 mM Tris-HCl pH 7.0, and 0.5 mg/mL BSA was prepared along with a 1 mM stock of aldehyde dissolved in dimethyl sulfoxide (DMSO) or a 0.1 mM stock of the acyl-CoA, and […] NADPH. All components including protein were degassed in sealed vials and placed under an argon atmosphere. NADPH was degassed as the solid prior to the addition of degassed buffer. Each assay was conducted by adding 75 μL of the NADPH stock, 58 μg protein for acyl-CoA assays or 15 μg protein for aldehyde assays, varying concentrations of aldehyde or acyl-CoA and buffer to bring the final volume to 1 mL. Each sample was continuously monitored for the decrease of NADPH at 340 nm on a Varian 50 Bio UV-visible spectrophotometer (Walnut Creek, Calif.). Initial rates were calculated in Excel using the linear initial rates of reaction obtained from the spectrophotometric assays by obtaining the slope from the best. In line and calculating nmol of NADPH oxidized per second. (Microsoft, Redmond, Wash.). These initial rates were used to calculate Km and Vmax values using the Igor Pro software package (Wavemetrics, Lake Oswego, Oreg.) fitting the initial rates to the Hill equation (31). NADPH specific activity assays were conducted identically as described above using a fixed 60 μM concentration of the various aldehyde substrates or 6 μM of the various acyl-CoA substrates.

[2] = target: T1, fatty acyl-CoA reductase (FACoAR) from M. aquaeolei VT8; test: Continuous spectrophotometric DTNB assay (release of free CoA); assay type: biochemical; settings: for Rate of Reaction (nmol NTB^2− min^−1 mg protein^−1): 6 μM of the respective CoA as substrate; for % Specific Activity of Palmitoyl-CoA: percent of the specific activity of palmitoyl-CoA, 6 μM substrate
Procedure: Buffers and solutions were prepared as described above for NADPH assays. Each assay was conducted by adding 75 μL of the 2 mg/mL NADPH stock solution in buffer, 58 μg of protein, and 10 μL of a 10 mg/mL solution of DTNB in DMSO, varying concentrations of acyl-CoA and buffer to bring the volume to 1 mL. Reduction of acyl-CoA substrate was monitored by following the increase of the 2-nitro-5-thiobenzoate (NTB^2−) dianion concentration at 412 nm. […] These initial rates were used to calculate the apparent K, and Vmax values using the Igor Pro (Wavemetrics, Lake Oswego, Oreg.) software package fitting the initial rates to the Hill equation (Equation 1) where v is the initial velocity, Vmax is the maximum calculated velocity, [S]^n is the concentration of substrate and n is the Hill coefficient, K0.5^n is the approximation of Km or the approximate substrate concentration at which half of Vmax is obtained at a specific value of the Hill coefficient n. In the case of enzyme inhibition, a modified version of the Hill equation allowing for cooperative inhibition (Equation 2) where all of the coefficients are defined as for the Hill equation and the additional [i]^n is the concentration of inhibitor and n is the Hill coefficient. The Ki^n is the approximate concentration of inhibitor it takes to double the K0.5 at a specific value of the Hill coefficient n.

[3] = test system: FALDR (fatty aldehyde reductase) from M. aquaeolei VT8; settings: previously tested enzyme, aldehyde substrate; cited from earlier work
M. aquaeolei VT8 FACoAR = test: Addition of detergents and reducing agents to the FACoAR kinetic assay; assay type: biochemical, Marinobacter aquaeolei VT8; settings: varying concentrations (isopropanol 5%)
Description: As part of our characterization, we attempted to alleviate the sigmoidal response of activity to substrate concentration by the addition of reducing agents and detergents. In the case of another type of acyl-CoA reductase, HMG-CoA reductase, the addition of reducing agents and/or detergents could limit, but not eliminate the sigmoidal kinetics related to cooperative binding. […] This seems to indicate the potential of some inter- or intra-protein interaction that is necessary for the activity to occur. To further investigate this possibility, the protein was analyzed by size exclusion chromatography to determine the native weight of the protein.

[4] = substrate: CCCCCCCCCCCCCCCC(=O)SCCNC(=O)CCNC(=O)[C@H](O)C(C)(C)COP(=O)(O)OP(=O)(O)OC[C@H]1O[C@@H](n2cnc3c(N)ncnc32)[C@H](O)[C@@H]1OP(=O)(O)O; test: Continuous spectrophotometric DTNB assay (release of free CoA); assay type: biochemical, Marinobacter aquaeolei VT8
[5] = substrate: CCCC/C=C\CCCCCCCCCC=O; test: Continuous spectrophotometric NADPH assay (decrease of NADPH at 340 nm); assay type: biochemical, Marinobacter aquaeolei VT8; settings: pH 7.0
Procedure: as §1

[6] = substrate: CCCCCCCCCCCCCCCC(=O)SCCNC(=O)CCNC(=O)[C@H](O)C(C)(C)COP(=O)(O)OP(=O)(O)OC[C@H]1O[C@@H](n2cnc3c(N)ncnc32)[C@H](O)[C@@H]1OP(=O)(O)O; test: as above; assay type: biochemical, Marinobacter aquaeolei VT8; settings: other: FIG. 5, NADPH assay, acyl-CoA substrate; pH 7.0
Procedure: as §1

[7] = running text b50, fatty aldehyde reduction
[8] = other: FIG. 6, NADPH assay, aldehyde substrate

With O=Cc1ccc2ccccc2c1 [2-Naphthaldehyde] the “Rate of Reaction (nmol NADP^+ min^−1 mg proten^−1)” value [1] was 5280 ± 10 nmol NADP^+ min^−1 mg proten^−1 and the “% Specific Activity of Decanal” value [1] was 3%.

In the case of CC=O [Acetaldehyde], the “Rate of Reaction (nmol NADP^+ min^−1 mg proten^−1)” value [1] is reported as 54 ± 6.0 nmol NADP^+ min^−1 mg proten^−1 and the “% Specific Activity of Decanal” value [1] is reported as under 1%.

For CCCCC/C=C\C/C=C\C/C=C\C/C=C\CCCC(=O)SCCNC(=O)CCNC(=O)[C@H](O)C(C)(C)COP(=O)(O)OP(=O)(O)OC[C@H]1O[C@@H](n2cnc3c(N)ncnc32)[C@H](O)[C@@H]1OP(=O)(O)O [Arachidonoyl-CoA], the “Rate of Reaction (nmol NTB^2− min^−1 mg protein^−1)” value [2] was 50.7 ± 3.66 nmol NTB^2− min^−1 mg protein^−1 and the “% Specific Activity of Palmitoyl-CoA” value [2] was 93%.

For CCCC/C=C\CCCCCCCCCC=O [Cis-11-hexadecenal], the Km [3] is listed as 177 µM, the Vmax [3] is listed as “approximately 60 nmols min^−1 mg^−1” and the “Rate of Reaction (nmol NADP^+ min^−1 mg proten^−1)” value [1] is listed as 9910 ± 600 nmol NADP^+ min^−1 mg proten^−1. The “n (Hill coefficient)” value ([1]; FIG. 6, NADPH assay, aldehyde substrate) was 2±0.8, the Km ([1]; fatty aldehyde reduction, read-out: Km (Hill equation)) was 25 µM and the “% Specific Activity of Decanal” value [1] was 63%. For the same molecule, the Vmax [1, 7] was about 10 µmol/min/mg and the cooperativity n [1, 7] was about 2.

In the case of CCCCCCCCCC=O [Decanal], the “Rate of Reaction (nmol NADP^+ min^−1 mg proten^−1)” value [1] is reported as 15800 ± 860 nmol NADP^+ min^−1 mg proten^−1 and the “% Specific Activity of Decanal” value [1] is reported as 100%.

With CCCCCCCCCCCC=O [Dodecanal] the “Rate of Reaction (nmol NADP^+ min^−1 mg proten^−1)” value [1] was 11700 ± 250 nmol NADP^+ min^−1 mg proten^−1 and the “% Specific Activity of Decanal” value [1] was 74%.

In the case of CCCCCC=O [Hexanal], the “Rate of Reaction (nmol NADP^+ min^−1 mg proten^−1)” value [1] is reported as 1540 ± 30.0 nmol NADP^+ min^−1 mg proten^−1 and the “% Specific Activity of Decanal” value [1] is reported as 10%.

In the case of CCCCCCCCCCCC(=O)SCCNC(=O)CCNC(=O)[C@H](O)C(C)(C)COP(=O)(O)OP(=O)(O)OC[C@H]1O[C@@H](n2cnc3c(N)ncnc32)[C@H](O)[C@@H]1OP(=O)(O)O [Lauroyl-CoA], the “Rate of Reaction (nmol NTB^2− min^−1 mg protein^−1)” value [2] is reported as 44.0 ± 6.3 nmol NTB^2− min^−1 mg protein^−1 and the “% Specific Activity of Palmitoyl-CoA” value [2] is reported as 80%.

With CCCCCCCCCCCCCC(=O)SCCNC(=O)CCNC(=O)[C@H](O)C(C)(C)COP(=O)(O)OP(=O)(O)OC[C@H]1O[C@@H](n2cnc3c(N)ncnc32)[C@H](O)[C@@H]1OP(=O)(O)O [Myristoyl-CoA] the “Rate of Reaction (nmol NTB^2− min^−1 mg protein^−1)” value [2] was 34.1 ± 2.1 nmol NTB^2− min^−1 mg protein^−1 and the “% Specific Activity of Palmitoyl-CoA” value [2] was 58%.

For CCCCCCCC=O [Octanal], the “Rate of Reaction (nmol NADP^+ min^−1 mg proten^−1)” value [1] was 5200 ± 1500 nmol NADP^+ min^−1 mg proten^−1 and the “% Specific Activity of Decanal” value [1] was 33%.

For CCCCCCCC(=O)SCCNC(=O)CCNC(=O)[C@H](O)C(C)(C)COP(=O)(O)OP(=O)(O)OC[C@H]1O[C@@H](n2cnc3c(N)ncnc32)[C@H](O)[C@@H]1OP(=O)(O)O [Octanoyl-CoA], the “Rate of Reaction (nmol NTB^2− min^−1 mg protein^−1)” value [2] was 18.8 ± 0.83 nmol NTB^2− min^−1 mg protein^−1 and the “% Specific Activity of Palmitoyl-CoA” value [2] was 34%.

For CCCCCCCC/C=C\CCCCCCCC(=O)SCCNC(=O)CCNC(=O)[C@H](O)C(C)(C)COP(=O)(O)OP(=O)(O)OC[C@H]1O[C@@H](n2cnc3c(N)ncnc32)[C@H](O)[C@@H]1OP(=O)(O)O [Oleyl-CoA], the “Rate of Reaction (nmol NTB^2− min^−1 mg protein^−1)” value [2] was 41.5 ± 3.1 nmol NTB^2− min^−1 mg protein^−1 and the “% Specific Activity of Palmitoyl-CoA” value [2] was 76%.

For CCC=O [Propanal], the “Rate of Reaction (nmol NADP^+ min^−1 mg proten^−1)” value [1] was 43 ± 6.0 nmol NADP^+ min^−1 mg proten^−1 and the “% Specific Activity of Decanal” value [1] was under 1%.

For CCCCCCCCCCCCCCCCCC(=O)SCCNC(=O)CCNC(=O)[C@H](O)C(C)(C)COP(=O)(O)OP(=O)(O)OC[C@H]1O[C@@H](n2cnc3c(N)ncnc32)[C@H](O)[C@@H]1OP(=O)(O)O [Stearoyl-CoA], the “Rate of Reaction (nmol NTB^2− min^−1 mg protein^−1)” value [2] was 37.6 ± 3.5 nmol NTB^2− min^−1 mg protein^−1 and the “% Specific Activity of Palmitoyl-CoA” value [2] was 69%.

In the case of CC(C)O [isopropanol], the “effect on FACoAR activity” value (M. aquaeolei VT8 FACoAR) is reported as “inhibited activity”.

For OCCS [β-mercaptoethanol], the “effect on FACoAR activity” value (M. aquaeolei VT8 FACoAR) was “inhibited activity”.

With Triton X-100 the “effect on FACoAR activity” value (M. aquaeolei VT8 FACoAR) was “inhibited activity”.

B1: fatty acyl-CoA reductase (FACoAR) from M. aquaeolei VT8 (Marinobacter nauticus VT8) (protein)
chain: MNYFLTGGTGFIGRFLVEKLLARGGTVYVLVREQSQDKLERLRERWGADDKQVKAVIGDLTSKNLGIDAKTLKSLKGNIDHVFHLAAVYDMGADEEAQAATNIEGTRAAVQAAEAMGAKHFHHVSSIAAAGLFKGIFREDMFEEAEKLDHPYLRTKHESEKVVREECKVPFRIYRPGMVIGHSETGEMDKVDGPYYFFKMIQKIRHALPQWVPTIGIEGGRLNIVPVDFVVDALDHIAHLEGEDGNCFHLVDSDPYKVGEILNIFCEAGHAPRMGMRIDSRMFGFIPPFIRQSIKNLPPVKRITGALLDDMGIPPSVMSFINYPTRFDTRELERVLKGTDIEVPRLPSYAPVIWDYWERNLDPDLFKDRTLKGTVEGKVCVVTGATSGIGLATAEKLAEAGAILVIGARTKETLDEVAASLEAKGGNVHAYQCDFSDMDDCDRFVKTVLDNHGHVDVLVNNAGRSIRRSLALSFDRFHDFERTMQLNYFGSVRLIMGFAPAMLERRRGHVVNISSIGVLTNAPRFSAYVSSKSALDAFSRCAAAEWSDRNVTFTTINMPLVKTPMIAPTKIYDSVPTLTPDEAAQMVADAIVYRPKRIATRLGVFAQVLHALAPKMGEIIMNTGYRMFPDSPAAAGSKSGEKPKVSTEQVAFAAIMRGIYW
Work on B1 yielded a K0.5 ([4]; acyl-CoA reduction, data of both DTNB and NADPH assays) of 4 µM, a Km ([4]; other: FIG. 5, DTNB assay, Hill fit, substrate) of 4 ± 0.3 µM and a K0.5 ([5]; fatty aldehyde reduction) of 25 µM. The Km [5, 8] was 48 ± 7 µM, the Vmax [5, 8] was 7.7±0.6 μmol min^−1 mg of protein^−1 and the Km [6] was 4.0 ± 0.2 µM.
